This assay concerns the target T1, human HDAC2 (Homo sapiens, UniProt Q92769).
T1 construct: Full length human HDAC2-FLAG was expressed in baculovirus infected Sf9 cells; host or cells: baculovirus infected Sf9 cells
The experiment in a line: Human HDAC enzyme inhibitor Fluor-de-Lys assay, HDAC2. It counts as biochemical. The note with it: 1.5 nM enzyme, 40 μM substrate BML-KI104, 3 h pre-incubation, 60 min reaction; read-out: HDAC2_IC50. From the text: Recombinant human HDAC8 (catalog number BML-SE145-0100) and HDAC10 (catalog number BML-SE559-0050) enzymes, HDAC substrates BML-KI104 and BML-KI178, and HDAC developer solutions BML-KI105 and BML-KI176 were purchased from Enzo Life Sciences (Farmingdale, NY). Recombinant human HDAC5 and HDAC11 were purchased from BPS Bioscience (San Diego, CA)(catalog numbers 50045 and 50021). Substrate Boc-Lys(TFA)-AMC was obtained from Bachem (Bupendorf, Switzerland) (catalog number 1-1985). HDAC inhibitor suberoylanilide hydroxamic acid (SAHA) was obtained from Indofine (Hillsborough Township, NJ) and trichostatin A (TSA) was obtained from Sigma-Aldrich (St. Louis, MO). […] HEPES pH 8.0 was obtained from Boston BioProducts (Ashland, MA), Tween-20 from Fisher Scientific (Hampton, NH)(catalog number BP337), TCEP from Calbiochem and 7.5% bovine serum albumin (BSA) from Life Technologies (Carlsbad, CA) (catalog number 15260037). 384-well, black assay plates were obtained from Corning (Corning, NY) (catalog number 3575).
Recombinant human HDAC1, HDAC2, and HDAC3/SMRT heterodimer were prepared by Merck Research Laboratories. […] The eluted protein was then passed over an anti-HDAC1 immunoaffinity column to remove any complexes containing HDAC1. […]
The histone deacetylase activities of HDAC1, HDAC2, HDAC3, HDAC6, and HDAC8 were measured in modified Fluor-de-Lys assays in 384-well format. In this assay, HDAC enzymes are initially incubated with an ε-acetyl (or -trifluoroacetyl)-L-lysine-containing substrate with a C-terminal amide having aminomethylcoumarin as the amine component. HDACs cleave the ε-acetyl group, rendering the resulting product susceptible to AMC cleavage by trypsin. The released AMC is then detected by its fluorescence.
The HDAC 1, 2 assays employed buffer A, which contained 20 mM HEPES, pH 8.0, 1 mM MgCl2, 137 mM NaCl, 2.7 mM KCl, 0.05% BSA. The HDAC3/SMRT assay employed buffer B, consisting of 20 mM HEPES, pH 8.0, 1 mM MgCl2, 50 mM NaCl, 2.7 mM KCl, 0.05% BSA, 0.005% Tween 20, and 10 μM IP4. The HDAC6 assay employed buffer C, consisting of 20 mM HEPES, pH 8.0, 1 mM MgCl2, 137 mM NaCl, 2.7 mM KCl, 0.5 mM TCEP (Calbiochem) and 0.05% BSA. The HDAC8 assay employed buffer D, consisting of 20 mM HEPES, pH 8.0, 1 mM MgCl2, 100 mM NaCl, 20 mM KCl, 0.1% n-octyl-β-D-glucoside (Anatrace, Maumee, OH) and 0.05% BSA. All steps were performed at room temperature (23° C.). The assay was performed by pre-incubating serial dilutions of test compounds with the target HDAC prior to initiation with substrate. Each compound was titrated in a 10-point dose response, using a 1:3 fold dilution scheme, with 0.15 ul of solution added by ECHO555 to the plate, followed by the addition of 20 μl of the appropriate HDAC isoform diluted in appropriate assay buffer. […] Final conditions used for each assay were: 1. HDAC 1, 0.3 nM total enzyme, 20 μM substrate BML-K1104; 2. HDAC 2, 1.5 nM total enzyme, 40 μM substrate BML-K1104; 3. HDAC 3/SMRT, 0.3 nM total enzyme, 20 μM substrate BML-K1104; 4. HDAC 6, 1.3 nM total enzyme, 2.5 μM substrate BML-K1104; 5. HDAC 8, 1.3 nM total enzyme, 200 μM substrate BML-K1178; the final high dose of test compound was 30 μM. […] The reactions were stopped and developed by addition of 30 ul of HDAC developer solution containing a saturating level of HDAC inhibitor as follows: 1.

T1 sequence (Q92769 whole entry): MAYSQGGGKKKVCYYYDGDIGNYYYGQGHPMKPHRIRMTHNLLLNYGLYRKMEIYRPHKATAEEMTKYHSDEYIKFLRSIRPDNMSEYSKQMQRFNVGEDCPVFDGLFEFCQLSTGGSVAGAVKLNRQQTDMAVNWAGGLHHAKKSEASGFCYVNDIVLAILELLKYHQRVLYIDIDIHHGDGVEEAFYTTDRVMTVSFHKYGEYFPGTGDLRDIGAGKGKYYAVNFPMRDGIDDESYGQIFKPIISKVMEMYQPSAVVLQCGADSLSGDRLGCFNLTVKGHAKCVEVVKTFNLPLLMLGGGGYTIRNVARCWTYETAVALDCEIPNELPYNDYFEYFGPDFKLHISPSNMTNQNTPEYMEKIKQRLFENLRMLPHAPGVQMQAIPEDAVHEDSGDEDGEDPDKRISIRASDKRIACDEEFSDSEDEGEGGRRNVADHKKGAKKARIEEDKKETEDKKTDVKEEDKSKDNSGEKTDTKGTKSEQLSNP

On to `COc1nc2ccccc2cc1-c1cnc([C@@H](N)COCCCC(=O)c2ncco2)[nH]1` [Compound 1, (R)-4-(2-amino-2-(5-(2-methoxyquinolin-3-yl)-1H-imidazol-2-yl)ethoxy)-1-(oxazol-2-yl)butan-1-one], for which the IC50 came to 1000 nM. As for `N[C@@H](COCCCC(=O)c1ccon1)c1ncc(-c2ccccc2F)[nH]1` [Compound 2, (R)-4-(2-amino-2-(5-(2-fluorophenyl)-1H-imidazol-2-yl)ethoxy)-1-(isoxazol-3-yl)butan-1-one], the IC50 was ≥ 900 nM. The same measure for `CCC(=O)CCCOC[C@H](NC(=O)c1cncs1)c1ncc(-c2cc3ccccc3nc2OC)[nH]1` [Compound 5, N-{(1R)-1-[5-(2-methoxyquinolin-3-yl)-1H-imidazol-2-yl]-2-[(4-oxohexyl)oxy]ethyl}-1,3-thiazole-5-carboxamide]: 1160 nM. As for `CCC(=O)CCCOC[C@H](NC(=O)C12CCN(CC1)CC2)c1ncc(-c2cc3ccccc3nc2OC)[nH]1` [Compound 6, N-{(1R)-1-[5-(2-methoxyquinolin-3-yl)-1H-imidazol-2-yl]-2-[(4-oxohexyl)oxy]ethyl}-1-azabicyclo[2.2.2]octane-4-carboxamide], the IC50 stood at 925 nM.

`CNC(=O)C(=O)CCCOC[C@H](NC(=O)c1cncs1)c1ncc(-c2cc3ccccc3nc2OC)[nH]1` [Compound 8, N-[(1R)-1-[5-(2-methoxyquinolin-3-yl)-1H-imidazol-2-yl]-2-{[5-(methylamino)-4,5-dioxopentyl]oxy}ethyl]-1,3-thiazole-5-carboxamide]: the IC50 worked out at 2.5 nM. `CNC(=O)C(=O)CCCOC[C@H](NC(=O)C12CCN(CC1)CC2)c1ncc(-c2cc3ccccc3nc2OC)[nH]1` [Compound 9, N-[(1R)-1-[5-(2-methoxyquinolin-3-yl)-1H-imidazol-2-yl]-2-{[5-(methylamino)-4,5-dioxopentyl]oxy}ethyl]-1-azabicyclo[2.2.2]octane-4-carboxamide]: the IC50 turned out to be 1.5 nM. In the case of `COc1nc2ccccc2cc1-c1cnc([C@H](COCCCC(=O)c2ncco2)NC(=O)c2cncs2)[nH]1` [Compound 10, N-{(1R)-1-[5-(2-methoxyquinolin-3-yl)-1H-imidazol-2-yl]-2-[4-(1,3-oxazol-2-yl)-4-oxobutoxy]ethyl}-1,3-thiazole-5-carboxamide], the IC50 was determined as 25.9 nM. Consider `COc1nc2ccccc2cc1-c1cnc([C@H](COCCCC(=O)c2ncco2)NC(=O)[C@H]2CC23CCN(C)CC3)[nH]1` [Compound 11, (1S)-N-{(1R)-1-[5-(2-methoxyquinolin-3-yl)-1H-imidazol-2-yl]-2-[4-(1,3-oxazol-2-yl)-4-oxobutoxy]ethyl}-6-methyl-6-azaspiro[2.5]octane-1-carboxamide], for which the IC50 amounted to 9.7 nM.

For the compound `COc1nc2ccccc2cc1-c1cnc([C@H](COCCCC(=O)c2ncco2)NC(=O)C23CCN(CC2)CC3)[nH]1` [Compound 12, N-{(1R)-1-[5-(2-methoxyquinolin-3-yl)-1H-imidazol-2-yl]-2-[4-(1,3-oxazol-2-yl)-4-oxobutoxy]ethyl}-1-azabicyclo[2.2.2]octane-4-carboxamide], the IC50 is 29.7 nM. For `COc1nc2ccccc2cc1-c1cnc([C@H](COCCCC(=O)c2ncco2)NC(=O)CN(C)C)[nH]1` [Compound 13, N-{(1R)-1-[5-(2-methoxyquinolin-3-yl)-1H-imidazol-2-yl]-2-[4-(1,3-oxazol-2-yl)-4-oxobutoxy]ethyl}-N~2~,N~2~- dimethylglycinamide], the IC50 was found to be 14.4 nM. With `COc1nc2ccccc2cc1-c1cnc([C@H](COCCCC(=O)c2ccon2)NC(=O)CN(C)C)[nH]1` [Compound 14, N-{(1R)-2-(4-isoxazol-3-yl-4-oxobutoxy)-1-[5-(2-methoxyquinolin-3-yl)-1H-imidazol-2-yl]ethyl}-N~2~,N~2~- dimethylglycinamide], the IC50 amounted to 3.2 nM.

For the compound `CN1CC(C(=O)N[C@@H](COCCCC(=O)c2ccon2)c2ncc(-c3ccccc3F)[nH]2)C1` [Compound 15, N-[(1R)-1-[5-(2-fluorophenyl)-1H-imidazol-2-yl]-2-(4-isoxazol-3-yl-4-oxobutoxy)ethyl]-1-methylazetidine-3-carboxamide], the IC50 came out at 31.3 nM. For the compound `CN1CC(C(=O)N[C@@H](COCCCC(=O)c2ccon2)c2[nH]c(-c3ccc(F)cc3)nc2Cl)C1` [Compound 16, N-[(1R)-1-[4-chloro-2-(4-fluorophenyl)-1H-imidazol-5-yl]-2-(4-isoxazol-3-yl-4-oxobutoxy)ethyl]-1-methylazetidine-3-carboxamide], the IC50 worked out at 56.7 nM. Turning to `CN(C)CC(=O)N[C@@H](COCCCC(=O)c1ccon1)c1[nH]c(-c2ccc(F)cc2)nc1Cl` [Compound 17, N-[(1R)-1-[4-chloro-2-(4-fluorophenyl)-1H-imidazol-5-yl]-2-(4-isoxazol-3-yl-4-oxobutoxy)ethyl]-N~2~,N~2~- dimethylglycinamide], the IC50 came to 106 nM. Under `CN1CCC2(CC1)C[C@@H]2C(=O)N[C@@H](COCCCC(=O)c1ccon1)c1[nH]c(-c2ccc(F)cc2)nc1Cl` [Compound 18, (1S)-N-[(1R)-1-[4-chloro-2-(4-fluorophenyl)-1H-imidazol-5-yl]-2-(4-isoxazol-3-yl-4-oxobutoxy)ethyl]-6-methyl-6-azaspiro[2.5]octane-1-carboxamide] stands 8.1 nM; under `COc1cc2nc(C)ccc2cc1-c1cnc([C@H](COCCCC(=O)c2cc(C)on2)NC(=O)C2CN(C)C2)[nH]1` [Compound 19, N-{(1R)-1-[5-(7-methoxy-2-methylquinolin-6-yl)-1H-imidazol-2-yl]-2-[4-(5-methylisoxazol-3-yl)-4-oxobutoxy]ethyl}-1-methylazetidine-3-carboxamide], 8 nM; under `COc1cc2nc(C)ccc2cc1-c1cnc([C@H](COCCCC(=O)c2cc(C)on2)NC(=O)[C@H]2CC23CCN(C)CC3)[nH]1` [Compound 20, (1S)-N-{(1R)-1-[5-(7-methoxy-2-methylquinolin-6-yl)-1H-imidazol-2-yl]-2-[4-(5-methylisoxazol-3-yl)-4-oxobutoxy]ethyl}-6-methyl-6-azaspiro[2.5]octane-1-carboxamide], 3.8 nM. On to `Cc1ccc2cc(-c3cnc([C@H](CSCCCC(=O)c4ncco4)NC(=O)[C@H]4CC45CCN(C)CC5)[nH]3)ccc2n1` [Compound 21, (1S)-6-methyl-N-[(1R)-1-[5-(2-methylquinolin-6-yl)-1H-imidazol-2-yl]-2-{[4-(1,3-oxazol-2-yl)-4-oxobutyl]sulfanyl}ethyl]-6-azaspiro[2.5]octane-1-carboxamide], for which the IC50 was 2.9 nM.
